Consider seven compounds from article PMC6445542 (Marmara pharmaceutical journal, 2013).

One experiment concerns the target HCV NS5B RNA dependent RNA polymerase (NS5BCΔ21) (Hepatitis C virus genotype 1b, UniProt P26663). The experiment can be described thus: HCV NS5B RdRp primer dependent elongation.
Conditions: not given
The format is biochemical.
The term IC50 denotes the concentration needed to halve the response being measured. Low readings indicate greater potency, high ones weaker potency. The compound `CCCCNC(=S)NNC(=O)CC1(CC)OCCc2c1[nH]c1c(CC)cccc21` (centres unmarked) [Compound 3d, 1-[2-(1,8-Diethyl-1,3,4,9-tetrahydropyrano[3,4-b]indole-1-yl)acetyl]-4-butyl thiosemicarbazide] displayed an IC50 of 29.2 ± 1.4 µM.

The experiment is the same for the next values; noted with them: read-out: % Inhibition (100 μM) of HCV NS5B RdRp activity.
By inhibition is commonly meant the relative decrease from the control value, in per cent. Turning to `CCc1cccc2c3c([nH]c12)C(CC)(CC(=O)O)OCC3` (racemic) [Etodolac, (R,S) 2-[1,8-diethyl-1,3,4-tetrahydropyrano (3,4-b)indole-1-yl]acetic acid, reference compound], the inhibition at 100 µM was approximately 10%.

As for `CCNC(=S)NNC(=O)CC1(CC)OCCc2c1[nH]c1c(CC)cccc21` (centres unmarked) [Compound 3b, 1-[2-(1,8-Diethyl-1,3,4,9-tetrahydropyrano[3,4-b]indole-1-yl)acetyl]-4-ethyl thiosemicarbazide], the inhibition at 100 µM was 49.9 ± 0.3%.

For the compound `CCc1cccc2c3c([nH]c12)C(CC)(CC(=O)NNC(=S)Nc1ccccc1)OCC3` (centres unmarked) [Compound 3g, 1-[2-(1,8-Diethyl-1,3,4,9-tetrahydropyrano[3,4-b]indole-1-yl)acetyl]-4-phenyl thiosemicarbazide], the inhibition at 100 µM is 38.9 ± 0.9%.

Regarding `CCc1cccc2c3c([nH]c12)C(CC)(CC(=O)NNC(=S)NCc1ccccc1)OCC3` (centres unmarked) [Compound 3f, 1-[2-(1,8-Diethyl-1,3,4,9-tetrahydropyrano[3,4-b]indole-1-yl)acetyl]-4-benzyl thiosemicarbazide], the inhibition at 100 µM stood at 23.4 ± 1.8%.

Consider `CCCNC(=S)NNC(=O)CC1(CC)OCCc2c1[nH]c1c(CC)cccc21` (centres unmarked) [Compound 3c, 1-[2-(1,8-Diethyl-1,3,4,9-tetrahydropyrano[3,4-b]indole-1-yl)acetyl]-4-propyl thiosemicarbazide], for which the inhibition at 100 µM was 34.6 ± 1.1%.

For the compound `CCc1cccc2c3c([nH]c12)C(CC)(CC(=O)NNC(=S)NC1CCCCC1)OCC3` (centres unmarked) [Compound 3h, 1-[2-(1,8-Diethyl-1,3,4,9-tetrahydropyrano[3,4-b]indole-1-yl)acetyl]-4-cyclohexyl thiosemicarbazide], the inhibition at 100 µM came out at 47.4 ± 0.9%.

On to `CCCCNC(=S)NNC(=O)CC1(CC)OCCc2c1[nH]c1c(CC)cccc21` (centres unmarked) [Compound 3d, 1-[2-(1,8-Diethyl-1,3,4,9-tetrahydropyrano[3,4-b]indole-1-yl)acetyl]-4-butyl thiosemicarbazide], for which the inhibition at 100 µM was determined as 68.7 ± 0.9%.
